Data: publication PMC11277476, “Synthesis and Biological Evaluation of Novel 2-Aroyl Benzofuran-Based Hydroxamic Acids as Antimicrotubule Agents” (International Journal of Molecular Sciences, 2024)

Legend:
bovine brain tubulin = experiment: Inhibition of tubulin polymerization (turbidimetric); assay type: biochemical; settings: tubulin at 10 μM; 20 min incubation at 30 °C; read-out: Tubulin Assembly IC50 ± SD
Protocol: (§1) Bovine brain tubulin was purified as described previously. To evaluate the effects of the compounds on tubulin assembly in vitro [77], varying concentrations were preincubated with 10 μM tubulin in 0.8 M monosodium glutamate (pH 6.6) at 30 °C, and the reaction mixtures were then cooled to 0 °C. After addition of GTP, the mixtures were transferred to 0 °C cuvettes in Beckman Coulter (Brea, CA, USA) DU-7400/DU-7500 recording spectrophotometers equipped with electronic temperature controllers and were warmed to 30 °C, and the assembly of tubulin was observed turbidimetrically. […] Inhibition of colchicine binding to tubulin was measured as described before, except that the reaction mixtures contained 0.5 μM tubulin and 5 μM each of [^3H]colchicine and test compound. Only one DEAE-cellulose filter was used per sample, and filtration was via gravity.

HT-29 cells [1] = experiment: Annexin V-PI flow cytometric analysis of apoptosis, HT-29; assay type: cell-based, human; settings: 96 h
Protocol: (§2) The quantification of apoptosis induced by the test compounds was carried out with flow cytometric analysis using the Annexin-V Fluos kit (Roche Diagnostics, Milan, Italy) following the manufacturer’s instructions. Cancer cells treated with the test compounds for the indicated time points and concentrations were then labeled with annexin V/FITC and PI and analyzed with BD FACS Celesta^TM Flow Cytometer (BD Bioscience, Franklin Lakes, NJ, USA) using the FL1 and FL3 channel, respectively, and FlowJo_v10.7.1 software.

MDA-MB-231 cells = experiment: In vitro growth inhibition (resazurin, 72 h), MDA-MB-231; assay type: cell-based; settings: Homo sapiens, mean ± SE
[2] = tested on: tubulin (colchicine site); experiment: Inhibition of [3H]colchicine binding to tubulin; parameters: species or system bovine; settings: tubulin 0.5 µM, [3H]colchicine 5 µM, tested compound 5 µM
Protocol: as §1

HeLa cells [3] = experiment: Annexin V-PI flow cytometric analysis of apoptosis, HeLa; assay type: cell-based, human; settings: 48 h, lower dose tested 25 nM
Protocol: as §2

HT-29 cells [4] = experiment: Cell cycle analysis (PI, flow cytometry); assay type: cell-based, human; settings: 250 nM for 24 h (figure legend)
Protocol: HT29 cells were treated with the indicated compounds for 24 h and then harvested and fixed in 70% ice-cold ethanol for 24 h. The cells were next treated with a 0.1% v/v solution of Triton X-100 in phosphate buffered saline (PBS) containing 10 μg/mL RNAse A and 20 μg/mL PI. The cells were incubated at room temperature for 30 min and then analyzed on a BD FACS Celesta^TM Flow Cytometer (BD Bioscience, Franklin Lakes, NJ, USA) in the FL3 channel. DNA histograms were analyzed using FlowJo_v10.7.1 software (BD Bioscience, Franklin Lakes, NJ, USA).

HeLa cells [5] = experiment: In vitro growth inhibition (resazurin, 72 h), HeLa; assay type: cell-based; settings: Homo sapiens, concentration inhibiting tumor cell proliferation by 50%, mean ± SE
[6] = tested on: acetylated histone H3 (Ac-H3K9) in HT-29 cells; experiment: Western blot of acetylated histone H3 (Ac-H3K9) in HT-29 cells; assay type: cell-based, human; settings: 10 µM, 6 h
Protocol: HT-29 cells were treated with selected compounds for 6 h at 10 µM, lysed, and then processed as previously described.
Antibodies directed against total histone H3 and its acetylated form (Ac-H3K9) were purchased from Cell Signaling Technology, Danvers, Massachusetts, while anti-vinculin antibody was purchased from Santa Cruz Biotechnology. Membranes were visualized using ECL select (GE Healthcare), and images were acquired using the iBright FL1500 Imaging System (Thermo Fisher Scientific, Waltham, MA, USA). Anti-vinculin (1:25,000, Santa Cruz Biotechnology, Dallas, TX, USA) was used as loading controls.

human recombinant HDAC6 = target: T1, human recombinant HDAC6 (Homo sapiens, UniProt Q9UBN7); experiment: HDAC isoform inhibition, fluorogenic substrate, HDAC6; assay type: biochemical; settings: mean ± SE, read-out: IC50 (µM) hHDAC6
T1 construct: purchased BPS Bioscience 50056
T1 sequence (Q9UBN7 1-1215): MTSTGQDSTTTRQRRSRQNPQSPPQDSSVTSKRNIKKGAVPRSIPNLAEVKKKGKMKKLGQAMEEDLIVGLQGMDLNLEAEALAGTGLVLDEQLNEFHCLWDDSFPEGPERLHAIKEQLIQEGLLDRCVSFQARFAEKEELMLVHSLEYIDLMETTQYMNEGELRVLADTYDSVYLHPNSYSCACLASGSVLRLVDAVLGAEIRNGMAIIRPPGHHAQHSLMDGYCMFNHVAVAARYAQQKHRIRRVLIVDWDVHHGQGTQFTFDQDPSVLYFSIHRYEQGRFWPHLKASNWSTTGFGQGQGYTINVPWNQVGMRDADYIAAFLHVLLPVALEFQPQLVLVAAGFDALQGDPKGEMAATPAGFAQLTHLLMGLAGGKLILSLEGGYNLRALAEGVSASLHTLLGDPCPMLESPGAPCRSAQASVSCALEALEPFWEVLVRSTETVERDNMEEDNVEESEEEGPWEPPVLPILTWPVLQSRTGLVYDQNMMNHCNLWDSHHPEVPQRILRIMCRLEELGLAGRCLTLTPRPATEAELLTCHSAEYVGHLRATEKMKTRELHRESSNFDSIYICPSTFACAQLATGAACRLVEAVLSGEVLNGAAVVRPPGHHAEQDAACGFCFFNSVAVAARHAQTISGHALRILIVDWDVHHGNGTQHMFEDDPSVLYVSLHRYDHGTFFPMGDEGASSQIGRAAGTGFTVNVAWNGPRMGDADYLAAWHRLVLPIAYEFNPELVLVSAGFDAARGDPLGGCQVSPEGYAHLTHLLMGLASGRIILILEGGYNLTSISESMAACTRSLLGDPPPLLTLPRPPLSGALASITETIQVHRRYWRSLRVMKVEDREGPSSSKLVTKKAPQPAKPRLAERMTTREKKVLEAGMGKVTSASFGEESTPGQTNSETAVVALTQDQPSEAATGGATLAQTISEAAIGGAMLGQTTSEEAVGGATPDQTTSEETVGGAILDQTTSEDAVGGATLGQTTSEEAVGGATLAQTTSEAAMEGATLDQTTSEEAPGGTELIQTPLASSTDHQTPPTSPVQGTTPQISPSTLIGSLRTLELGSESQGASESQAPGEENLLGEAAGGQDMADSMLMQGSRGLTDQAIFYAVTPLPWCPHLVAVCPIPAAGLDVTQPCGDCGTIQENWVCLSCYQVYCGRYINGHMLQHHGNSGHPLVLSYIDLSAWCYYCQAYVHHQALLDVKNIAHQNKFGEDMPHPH
Protocol: Further experiments were also carried out to evaluate the inhibitory activities of test compounds on selected HDAC isoforms. […] Following an incubation of 15 min at RT, fluorescence was measured in an EnSight multimodal plate reader (PerkinElmer, Boston, MA, USA) with an excitation wavelength of 360 nm and an emission wavelength of 450 nm.

[7] = tested on: human peripheral blood mononuclear cells (PBMC) stimulated with PHA; experiment: Cytotoxicity in PHA-stimulated PBMC (resazurin, 72 h); assay type: cell-based; settings: mean ± SEM
From the text: (§3) Peripheral blood mononuclear cells (PBMC), obtained from human peripheral blood (leucocyte-rich plasma-buffy coats) of healthy volunteers using a Lymphoprep^TM (Serumwerk Bernburg AG) gradient, were used for the evaluation of the cytotoxic potential of compounds in normal human cells.
(§4) After extensive washing with saline solution (Hank’s Buffer Saline Solution, BioConcept, Allschwil, Switzerland), quiescent PBMCs were resuspended (1.0 × 10^6 cells/mL) in RPMI-1640 medium supplemented with 10% FBS. To evaluate cytotoxicity in proliferating PBMCs cultures, cells were resuspended at a concentration of 5 × 10^5 cells/mL in a growth medium containing […] of PHA (Irvine Scientific, Santa Ana, CA, USA). The same cellular density was utilized for resting PBMC cultures, without the addition of PHA. The tested compounds were added at different concentrations, and after a 72 h incubation, cell viability was determined using the resazurin test as described above.

MCF-7 cells = experiment: In vitro growth inhibition (resazurin, 72 h), MCF-7; assay type: cell-based; settings: Homo sapiens, MCF7, mean ± SE
[8] = tested on: human peripheral blood mononuclear cells (PBMC), not stimulated with PHA; experiment: Cytotoxicity in resting PBMC (resazurin, 72 h); assay type: cell-based; settings: mean ± SEM
From the text: as §3, §4

A549 cells = experiment: In vitro growth inhibition (resazurin, 72 h), A549; assay type: cell-based; settings: Homo sapiens, mean ± SE
HT-29 cells [9] = experiment: In vitro growth inhibition (resazurin, 72 h), HT-29; assay type: cell-based; settings: Homo sapiens, mean ± SE

IC50 (human recombinant HDAC6) [µM] | IC50 (MCF-7 cells) [nM] | IC50 (A549 cells) [nM] | IC50 (HT-29 cells [9]) [nM] | SMILES | IC50 (bovine brain tubulin) [nM] | induction of apoptosis / cell death (annexin V/PI), in words (HT-29 cells [1]) | IC50 (MDA-MB-231 cells) [nM] | Colchicine Binding % Inhibition ± SD [2] [%] | cytotoxic effect (annexin V/PI), in words (HeLa cells [3]) | Percentage of HT-29 cells in G1 phase (HT-29 cells [4]) [%] | Percentage of HT-29 cells in G2/M phase (HT-29 cells [4]) [%] | Percentage of HT-29 cells in S phase (HT-29 cells [4]) [%] | IC50 (HeLa cells [5]) [nM] | acetylated histone H3 (Ac-H3K9) level, Western blot [6] | GI50 [7] [µM] | GI50 [8] [µM]
 |  |  |  | COc1ccc(/C=C\c2cc(OC)c(OC)c(OC)c2)cc1O [CA-4, combretastatin A-4, reference compound] | […] | completely resistant | […] | 98 ± 2 | greatest cytotoxic effects at the lower dose tested | 41.83 | 27.38 | 30.79 | 4.6 ± 0.1 |  |  | 
6.12 ± 0.41 | 24 ± 8 | 168 ± 5.31 | 75.3 ± 3.09 | COc1cc2oc(C(=O)c3ccccc3OC)c(C)c2cc1/C=C/C(=O)NO [Compound 6f, (E)-N-Hydroxy-3-(6-methoxy-2-(2-methoxybenzoyl)-3-methylbenzofuran-5-yl)acrylamide] | 1200 ± 100 | able to induce cell apoptosis | 41.9 ± 2.33 | 76 ± 2 |  | 6.12 | 87.54 | 6.34 | 3.9 ± 0.01 | significantly increased acetylated histone H3 (Ac-H3K9) | 0.51 ± 0.1 | > 10
10.2 ± 0.7 | 30 ± 0.7 | 36.7 ± 0.91 | 80.3 ± 1.31 | COc1cc2oc(C(=O)c3ccccc3)c(C)c2cc1/C=C/C(=O)NO [Compound 6g, (E)-3-(2-Benzoyl-6-methoxy-3-methylbenzofuran-5-yl)-N-hydroxyacrylamide] | 690 ± 100 | able to induce cell apoptosis | 23.9 ± 0.77 | 86 ± 5 | greatest cytotoxic effects at the lower dose tested | 34.91 | 40.74 | 24.35 | 0.36 ± 0.01 |  | 0.15 ± 0.02 | > 10

SMILES | IC50 (human recombinant HDAC6) [µM] | IC50 (MCF-7 cells) [nM] | IC50 (A549 cells) [nM] | IC50 (HT-29 cells [9]) [nM] | IC50 (bovine brain tubulin) [nM] | induction of apoptosis / cell death (annexin V/PI), in words (HT-29 cells [1]) | IC50 (MDA-MB-231 cells) [nM] | Colchicine Binding % Inhibition ± SD [2] [%] | cytotoxic effect (annexin V/PI), in words (HeLa cells [3]) | Percentage of HT-29 cells in G1 phase (HT-29 cells [4]) [%] | Percentage of HT-29 cells in G2/M phase (HT-29 cells [4]) [%] | Percentage of HT-29 cells in S phase (HT-29 cells [4]) [%] | IC50 (HeLa cells [5]) [nM] | acetylated histone H3 (Ac-H3K9) level, Western blot [6] | GI50 [7] [µM] | GI50 [8] [µM]
COc1cc2oc(C(=O)c3cc(OC)c(OC)c(OC)c3)cc2cc1/C=C/C(=O)NO [Compound 6i, (E)-N-Hydroxy-3-(6-methoxy-2-(3,4,5-trimethoxybenzoyl)benzofuran-5-yl)acrylamide] | 5.16 ± 0.34 | 69 ± 6 | 304 ± 1.46 | 272 ± 2.03 | 1600 ± 300 | able to induce cell apoptosis | 93.7 ± 2.04 | 43 ± 4 |  | 4.13 | 91.07 | 4.79 | 14.8 ± 0.32 | significantly increased acetylated histone H3 (Ac-H3K9) | 2.32 ± 0.23 | > 10
